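Values below derive from 48-hour exposures of cells grown in 96-well plates, with endpoints linearly interpolated between the two concentrations bracketing the appropriate inhibition level. GI50 marks 50% less growth.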 Calls of active or inactive are those of the source. No stated cut-off is given here; in the data, active = GI50 up to about 1.1 µM and inactive = higher.
Columns and labels:
Assay in all cases: NCI tumour cell line growth inhibition, 48 h
[1] = system: K562
[2] = system: NCI-H460
[3] = system: NCI-H23
[4] = system: HCT-15
[5] = system: ACHN
[6] = system: RXF 393
[7] = system: MDA-MB-435
[8] = system: SK-MEL-5
[9] = system: A549
[10] = system: UACC-257
[11] = system: CCRF-CEM
[12] = system: HT-29
[13] = system: U-251
[14] = system: A498
[15] = system: HOP-92
[16] = system: HCC 2998
[17] = system: OVCAR-3
[18] = system: HOP-62
[19] = system: RPMI-8226
[20] = system: BT-549
[21] = system: SF-539
[22] = system: MCF7
[23] = system: HL-60
[24] = system: MDA-MB-231
[25] = system: SF-295
[26] = system: SW-620
[27] = system: M14
[28] = system: SK-MEL-2
[29] = system: UACC-62
[30] = system: MDA-N
[31] = system: COLO 205
[32] = system: SK-OV-3
[33] = system: MOLT-4
[34] = system: CAKI-1
[35] = system: IGROV-1
[36] = system: SF-268
[37] = system: EKVX
[38] = system: 786-0
[39] = system: OVCAR-5
[40] = system: SN12C
[41] = system: Malme-3M
[42] = system: T47D
[43] = system: Hs-578T
[44] = system: NCI-H522
[45] = system: SR
[46] = system: HCT-116
[47] = system: OVCAR-4
[48] = system: DU-145
[49] = system: KM12
[50] = system: LOX IMVI
[51] = system: UO-31
[52] = system: SK-MEL-28
[53] = system: OVCAR-8
[54] = system: NCI/ADR-RES
[55] = system: TK-10
[56] = system: PC-3
[57] = system: SNB-75
[58] = system: NCI-H226
[59] = system: SNB-19

## CC[C@@H](O)C[C@H]1CCC[C@@]2(C[C@@H]3OC(=O)/C=C/[C@@](C)(O)[C@@H](O)[C@H](C)[C@@H](O)[C@H](OC4CCC(N(C)C)C(C)O4)[C@@H](O)[C@](C)(O)CCCCC/C=C/[C@@H]4CC(C)(C)O[C@@]4(O)C[C@H](O2)[C@H]3C)O1 (stereo partly drawn)
[1]
  GI50: < 0.01 µM (active)
[2]
  GI50: 4.23 µM (inactive)
[3]
  GI50: < 0.01 µM (active)
[4]
  GI50: 11.5 µM
[5]
  GI50: < 0.01 µM (active)
[6]
  GI50: 14.7 µM (inactive)
[7]
  GI50: 0.927 µM (active)
[8]
  GI50: < 0.01 µM (active)
[9]
  GI50: < 0.01 µM (active)
[10]
  GI50: < 0.01 µM (active)
[11]
  GI50: 15.9 µM (inactive)
[12]
  GI50: 3.49 µM (inactive)
[13]
  GI50: < 0.01 µM (active)
[14]
  GI50: 19.9 µM (inactive)
[15]
  GI50: 13.7 µM (inactive)
[16]
  GI50: 2.4 µM (inactive)
[17]
  GI50: 12.9 µM (inactive)
[18]
  GI50: 13.4 µM (inactive)
[19]
  GI50: < 0.01 µM (active)
[20]
  GI50: 12.6 µM (inactive)
[21]
  GI50: 10.9 µM (inactive)
[22]
  GI50: < 0.01 µM (active)
[23]
  GI50: 3.75 µM (inactive)
[24]
  GI50: 17.5 µM (inactive)
[25]
  GI50: < 0.01 µM (active)
[26]
  GI50: 16.6 µM (inactive)
[27]
  GI50: 1.85 µM (inactive)
[28]
  GI50: 10.5 µM (inactive)
[29]
  GI50: 6.37 µM (inactive)
[30]
  GI50: 2.96 µM (inactive)
[31]
  GI50: < 0.01 µM (active)
[32]
  GI50: 14.6 µM (inactive)
[33]
  GI50: 1.91 µM (inactive)
[34]
  GI50: 3.61 µM (inactive)
[35]
  GI50: 6.44 µM (inactive)
[36]
  GI50: 15.7 µM (inactive)
[37]
  GI50: < 0.01 µM (active)
[38]
  GI50: 11.3 µM (inactive)
[39]
  GI50: 14.8 µM (inactive)
[40]
  GI50: 16.4 µM (inactive)
[41]
  GI50: 1.56 µM (inactive)
[42]
  GI50: < 0.01 µM (active)
[43]
  GI50: 12.8 µM (inactive)
[44]
  GI50: < 0.01 µM (active)
[45]
  GI50: 1.06 µM (active)
[46]
  GI50: 1.54 µM (inactive)
[47]
  GI50: 5.2 µM (inactive)
[48]
  GI50: 11.3 µM (inactive)
[49]
  GI50: 0.34 µM (active)
[50]
  GI50: 1.82 µM (inactive)
[51]
  GI50: < 0.0388 µM (active)
[52]
  GI50: 15.8 µM (inactive)
[53]
  GI50: < 0.01 µM (active)

## COC(=O)C(Cc1nc2ccccc2nc1O)C(=O)C(=O)Nc1cc(C(F)(F)F)ccc1Cl (stereo not drawn)
[1]
  GI50: 12 µM (inactive)
[2]
  GI50: 19 µM (inactive)
[54]
  GI50: 15.6 µM (inactive)
[3]
  GI50: 14.2 µM (inactive)
[4]
  GI50: 13.8 µM
[5]
  GI50: 12.1 µM (inactive)
[6]
  GI50: 13.8 µM (inactive)
[7]
  GI50: 19.4 µM (inactive)
[8]
  GI50: 20.4 µM (inactive)
[9]
  GI50: 69.2 µM (inactive)
[10]
  GI50: 28.3 µM (inactive)
[11]
  GI50: 1.51 µM (inactive)
[12]
  GI50: 15.3 µM (inactive)
[13]
  GI50: 9.91 µM (inactive)
[14]
  GI50: 24 µM (inactive)
[55]
  GI50: 21.1 µM (inactive)
[15]
  GI50: 11.6 µM (inactive)
[16]
  GI50: 13.6 µM (inactive)
[17]
  GI50: 12.8 µM (inactive)
[18]
  GI50: 17.4 µM (inactive)
[19]
  GI50: 7.01 µM (inactive)
[20]
  GI50: 14.9 µM (inactive)
[56]
  GI50: 17 µM (inactive)
[57]
  GI50: 18.6 µM (inactive)
[58]
  GI50: 18 µM (inactive)
[22]
  GI50: 14.4 µM (inactive)
[23]
  GI50: 10.3 µM (inactive)
[24]
  GI50: 22.2 µM (inactive)
[25]
  GI50: 28.3 µM (inactive)
[26]
  GI50: 13.8 µM (inactive)
[27]
  GI50: 16.7 µM (inactive)
[28]
  GI50: 16.1 µM (inactive)
[29]
  GI50: 18.2 µM (inactive)
[30]
  GI50: 25.9 µM (inactive)
[32]
  GI50: 35.3 µM (inactive)
[33]
  GI50: 6.17 µM (inactive)
[34]
  GI50: 15.4 µM (inactive)
[35]
  GI50: 12.2 µM (inactive)
[36]
  GI50: 14.2 µM (inactive)
[37]
  GI50: 15 µM (inactive)
[38]
  GI50: 12.6 µM (inactive)
[39]
  GI50: 19.4 µM (inactive)
[40]
  GI50: 20.5 µM (inactive)
[41]
  GI50: 14.1 µM (inactive)
[42]
  GI50: 15.1 µM (inactive)
[43]
  GI50: 12.7 µM (inactive)
[44]
  GI50: 3.87 µM (inactive)
[45]
  GI50: 4.58 µM (inactive)
[46]
  GI50: 18.2 µM (inactive)
[47]
  GI50: 12.1 µM (inactive)
[49]
  GI50: 14.5 µM (inactive)
[50]
  GI50: 16.2 µM (inactive)
[51]
  GI50: 15.5 µM (inactive)
[52]
  GI50: 25.4 µM (inactive)
[53]
  GI50: 12.1 µM (inactive)

## Cc1nnc2sc(N/N=C/c3ccccc3)nn12
[1]
  GI50: > 100 µM (inactive)
[2]
  GI50: > 100 µM (inactive)
[54]
  GI50: > 100 µM (inactive)
[3]
  GI50: > 100 µM (inactive)
[4]
  GI50: > 100 µM
[5]
  GI50: > 100 µM (inactive)
[6]
  GI50: > 100 µM (inactive)
[7]
  GI50: > 100 µM (inactive)
[59]
  GI50: > 100 µM (inactive)
[8]
  GI50: > 100 µM (inactive)
[9]
  GI50: > 100 µM (inactive)
[10]
  GI50: > 100 µM (inactive)
[11]
  GI50: > 100 µM (inactive)
[12]
  GI50: > 100 µM (inactive)
[13]
  GI50: > 100 µM (inactive)
[14]
  GI50: > 100 µM (inactive)
[55]
  GI50: > 100 µM (inactive)
[17]
  GI50: > 100 µM (inactive)
[18]
  GI50: > 100 µM (inactive)
[19]
  GI50: > 100 µM (inactive)
[20]
  GI50: > 100 µM (inactive)
[56]
  GI50: > 100 µM (inactive)
[21]
  GI50: > 100 µM (inactive)
[57]
  GI50: > 100 µM (inactive)
[58]
  GI50: > 100 µM (inactive)
[22]
  GI50: > 100 µM (inactive)
[24]
  GI50: > 100 µM (inactive)
[25]
  GI50: > 100 µM (inactive)
[26]
  GI50: > 100 µM (inactive)
[27]
  GI50: > 100 µM (inactive)
[28]
  GI50: > 100 µM (inactive)
[29]
  GI50: 23.5 µM (inactive)
[30]
  GI50: > 100 µM (inactive)
[31]
  GI50: > 100 µM (inactive)
[32]
  GI50: 27.4 µM (inactive)
[33]
  GI50: > 100 µM (inactive)
[34]
  GI50: > 100 µM (inactive)
[35]
  GI50: > 100 µM (inactive)
[36]
  GI50: 61.2 µM (inactive)
[37]
  GI50: > 100 µM (inactive)
[38]
  GI50: > 100 µM (inactive)
[39]
  GI50: > 100 µM (inactive)
[40]
  GI50: > 100 µM (inactive)
[41]
  GI50: > 100 µM (inactive)
[42]
  GI50: > 100 µM (inactive)
[43]
  GI50: > 100 µM (inactive)
[44]
  GI50: > 100 µM (inactive)
[46]
  GI50: > 100 µM (inactive)
[47]
  GI50: > 100 µM (inactive)
[48]
  GI50: > 100 µM (inactive)
[49]
  GI50: > 100 µM (inactive)
[50]
  GI50: > 100 µM (inactive)
[51]
  GI50: > 100 µM (inactive)
[52]
  GI50: > 100 µM (inactive)
[53]
  GI50: > 100 µM (inactive)
